For data set [1], the system named is LC3B-II. Put plainly: LC3 processing assay in HeLa cells. It is filed as cell-based, human. The protocol: For EGFP-α-synuclein degradation assay, equal numbers of sub-confluent SH-SY5Y cells are seeded in 6 well dishes and allowed to attach for 24 h. Cells are transfected with EGFP-α-synuclein plasmid using Lipofectamine 2000 (Life technologies) and allowed to express for 24 h.
After treatments, cells are collected in Laemmli buffer to perform LC3 processing assay, P70S6K, GSK3β and 4E-BP1 immunoblotting. To validate EGFP-α-synuclein degradation by 6-Bio, treated cells are scraped and collected in growth medium. After washing with phosphate buffer, pellets are lysed in Laemmli buffer and boiled for 10 min.
Samples are electrophoresed on SDS-PAGE (8-15%) and then transferred onto PVDF (Bio-Rad) membrane using Transblot turbo (Bio-Rad). Transferred blots are stained with Ponceau S, probed with appropriate primary antibodies overnight and subsequently horseradish peroxidase conjugated secondary antibody. Signals are developed using enhanced chemiluminescence substrate (Clarity, Bio-Rad), imaged using a gel documentation system (G-Box, Syngene) and bands are quantified using image software (NIH). (FIGS. 4F and 5A)

For data set [2], the system named is GFP-Atg8. The data set can be described thus: GFP-Atg8 processing assay (general autophagy). It is filed as cell-based, Saccharomyces cerevisiae. The protocol: Saccharomyces cerevisiae strain containing the GFP-Atg8 (pRS 316 vector backbone) plasmid is grown in synthetic complete medium lacking uracil (SC-URA) under appropriate conditions (30° C. 250 rpm). From this, a secondary culture is inoculated at A600 nm=0.2 and grown as above until A600 nm reached ˜0.65. The cultures are transferred to SD-N (nitrogen starvation) medium at A600 nm=3, separately with and without the compounds, and samples are collected at different time intervals. Sample preparation is done by the TCA precipitation method and immunoblotting is performed using standard methods.
Yeast strains (A600=3) are resuspended in trichloroacetic acid (12.5%) and stored at −80° C. for at least half an hour. Samples are thawed on ice, centrifuged (16000×g, 10 min) and pellet is washed twice with ice-cold acetone (80%). Pellets are air dried, resuspended in lysis (1% SDS and 0.1 N NaOH) solution and Laemmii buffer and boiled for 10 min.

Data set [3] has as its system yeast cells. Put plainly: Yeast growth assay (WT EGFP cells). It is filed as cell-based, S. cerevisiae. Conditions: 50 μM. As to the method: Growth assays: In a 384 well plate, appropriate yeast strains are seeded (A600˜0.07) with and without drugs and incubated (80 μl, 30° C. and 420 rpm) in a multiplate reader (Varioskan Flash, Thermo Scientific) for 48 h with automatic absorbance (A600) recording every 20 min. Growth curves are plotted and analyzed using GraphPad Prism.
Appropriate yeast strains are seeded (A600 ˜0.07) with or without drugs in a 384-well plate and incubated (420 rpm, 30° C. and 80 μl) in a multiplate reader (Varioskan Flash, Thermo Scientific) for 48 h that records absorbance (A600) automatically for every 20 min. Growth curves are plotted using GraphPad Prism.

In data set [4] the test system is autophagy (degradation of firefly luciferase). Put plainly: Dual luciferase assay to monitor autophagy in real time. It is filed as cell-based, S. cerevisiae. Particulars: 1 μM, 10 μM, 25 μM and 50 μM. The source says: The S. cerevisiae shuttle vectors pRS306 (URA) and pRS305 (LEU) are used to clone the POT1 promoter and the Firefly and Renilla luciferase genes, respectively. The oleate responsive region of the POT1 promoter is amplified from yeast genomic DNA and along with the firefly and Renilla luciferase genes (firefly gene from pMY30 and Renilla gene from pRL-TK) is cloned into these vectors to obtain the constructs pPM3 and pPM5. These plasmid constructs are linearized using suitable restriction enzymes in the selection marker and transformed into wild type strains of S. cerevisiae and P. pastoris by standard transformation methods-Lithium acetate or PEG based transformation. […]
To validate the luciferase assay developed in the laboratory, it is compared to the conventional Pot1-GFP processing assay, Both pexophagy and general autophagy are measured by following the rates of degradation of firefly and Renilla activities (FIG. 1A).
Thus, a 3 standard deviation (SD) parameter is used as a criterion to obtain the hits from the primary screen. […] Both the inhibitors show a dose dependent inhibition in autophagy as determined using luciferase assay wherein inhibition by concentrations 1 μM, 10 μM, 25 μM and 50 μM of the inhibitors are assessed and inhibition is observed to increase as concentration increases from 1 μM to 50 μM. […]

For data set [5], the system named is Atg8. Put plainly: Atg8 immunolocalization in lace plant. It is filed as cell-based, Aponogeton madagascariensis. Conditions: two hours; same modulator concentrations as MDC; control 0.90±0.08. The protocol:
Whole leaves are treated for two hours prior to fixation in 100% Methanol at 37° C. and then hydrophilized to 20% methanol by adding distilled water at 60° C. every two minutes for 32 minutes. Samples are then sectioned and placed on a multiwall slide and allowed to air dry for 10 minutes to facilitate membrane permeabilization. Blocking is done for 30 minutes at 37° C. with 4% low fat milk powder in 1× microtubule stabilization buffer MTSB (Modified 2× MTSB stock solution: 15 g PIPES, 1.9 g EDTA, 1.22 g MgSO4*7H2O and 2.5 g KOH—pH 7.0). Primary antibody incubation for anti-rabbit ATG8 (Agrisera, AS14 2769) is done at a 1:1000 dilution in 1× MTSB for 30 minutes at 37° C. Samples are then washed for 5 minutes, 3 times with 1× MTSB. Secondary antibody incubation with Goat anti-rabbit Dylight 488 (Agrisera AS09 633) at a 1:2000 dilution in 1× MTSB is done for 30 minutes at 37° C. and then samples are rinsed as above. Tissues are mounted in Mowiol 4-88 solution (Sigma, 81381) and scanned via confocal microscopy as mentioned above. The mean number of puncta per cell is determined using maximum intensity projections (MIPs) for each replicate. The total number of cells within a field of view are counted manually and the number of puncta are counted automatically using ImageJ.

Data set [6] relates to EGFR. Put plainly: EGFR trafficking (endocytosis-mediated EGFR degradation). The data set is classed as cell-based, human. Conditions: HeLa; 100 ng/ml EGF; 0-3 hours. The protocol:
HeLa cells are plated on 6 well plates and allowed to attach on the surface. The cells are washed with PBS and then starved in DMEM (serum free media) for 3 hours. Pre-treatment with compounds is carried out for 1 hour, following which they are pulsed with 100 ng/ml of EGF and samples are collected at 0, 1, 2 and 3 hours.

Where [7] appears, read: starvation, 4 h and 6 h, 50 μM, versus untreated.

Structures are written as SMILES.

For `O=C1Nc2cc(Br)ccc2/C1=C1/Nc2ccccc2/C1=N\O` [6-Bio, (2′Z,3′E)-6-Bromoindirubin-3′-oxime], the LC3-II levels result in data set [1] (2 h) is given as “increases LC3-II”. Further, in data set [1] (with lysosomal protease inhibitors, vs 6-Bio only), the “LC3B-II accumulated in presence of E64D and Pepstatin A” value was “significantly more”. The “autophagy induction / flux, growth condition” value in data set [2] (growth condition, 6 h, 50 μM) is listed as “dramatically induces autophagy”. Also, the “increase in autophagic flux, growth condition” value in data set [2] (growth condition, 50 μM, versus untreated) is given as “approximately 3 fold”. Besides, in data set [2] (setting [7]), the “increase in autophagic flux, starvation condition” value is 2 fold and the “increase in autophagy induction, starvation condition” value was determined as 2 fold. Further, the “effect on growth of yeast cells” value in data set [3] was “does not affect the growth of yeast cells”.
With `Cc1ccc(S(=O)(=O)/C=C/C#N)cc1` [Bay11, 3-[(4-methylphenyl)sulfonyl]-(2E)-propenenitrile], in data set [4], the “effect on rates of degradation of firefly luciferase (inhibition of autophagy)” value was “dose dependent effect”. Also, in data set [2] (starvation), the “GFP-Atg8 labelled autophagosomes, fluorescence microscopy” value is recorded as “accumulation of punctate structures outside the vacuole” and the “release of GFP from GFP-Atg8 (general autophagy)” value is “slower release of GFP”. In addition, the “mean number of Atg8 puncta per cell” value in data set [5] is 0.22±0.03. For the same molecule, in data set [6], the “degradation of EGFR over time upon EGF treatment” value was “no difference in the degradation of EGFR”.
For the molecule `COc1cc(C=C(C#N)C(=O)Nc2nnc(C(F)(F)F)s2)ccc1OCc1ccc(C(F)(F)F)cc1C(F)(F)F` [XCT 790, 3-[4-(2,4-Bis-trifluoromethylbenzyloxy)-3-methoxyphenyl]-2-cyano-N-(5-trifluoromethyl-1,3,4-thiadiazol-2-yl)acrylamide], the “effect on growth of yeast cells” value in data set [3] is “does not affect the yeast growth”.

(Values after US20180369186A1, “METHOD FOR MODULATING AUTOPHAGY AND APPLICATIONS THEREOF” (JAWAHARLAL NEHRU CENTRE FOR ADVANCED SCIENTIFIC RESEARCH, priority 2015, published 2018).)
